No end group written: not given here.
Legend:
Assay type in all cases: in vivo, BALB/c-Mäuse
Knochenmarkstammzellen [1] = experiment: Agar colony test (CFU test) of bone marrow stem cells after dexamethasone treatment, followed by DA-SP5; details: after Dexamethason 150 mg/kg i.p. days +1 to +5, DA-SP5 10 µg i.p. three times weekly, normal value 121 ± 23
From the text: (§1) Es wurde gefunden, daß als Folge einer Therapie mit Zytostatika bzw. durch eine Bestrahlungstherapie sich im Blut der entsprechend behandelten Patienten die Zahl immunologischer Abwehrzellen vermindert. Dies resultiert, weil durch die o. g. Therapie auch die Stammzellen des Knochenmarks (aus diesen entstehen die immunologischen Abwehrzellen) zytotoxisch geschädigt werden. Die Substanz DA-SP5 erhöht die Nachbildung von immunologischen Abwehrzellen aus Stammzellen des Knochenmarks (W. DIEZEL et al. (1989): DD-PS 268160 Al). Es hat sich gezeigt, daß DA-SP5 direkt die Proliferation unreifer Stammzellen des Knochenmarks beschleunigen kann bzw. die Wirkung des Kolonien-stimulierrenden Faktors GM-CSF synergistisch erhöht. Überraschenderweise wurde jetzt festgestellt, daß als Folge dieser Wirkung die zytotoxische Schädigung von Knochenmarkstammzellen (und damit die verminderte Entstehung immunologischer Abwehrzellen) durch Chemotherapeutika bzw. infolge Bestrahlung der Zellen, kompensiert werden kann. Die erfindungsgemäße Wirkung wurde dadurch festgestellt, indem BALB/c-Mäuse hochdosiert mit zytotoxischen (Zellproliferations-hemmenden) Therapeutika systemisch behandelt wurden. Anschließend erfolgte eine Therapie mit DA-SP5 bzw. es wurde lediglich 0,9%ige NaCl-Lösung (Kontrallgruppe) appliziert. Während dieser Therapie wurde untersucht, ob die DE-SP5-behandelten Tiere zeitlich eher befähigt wurden "Knochenmarkstammzell-Kolonien" entsprechend der Norm zu bilden. Eine diesbezüglich schnellere Bildung korreliert mit einer schnelleren Entstehung entsprechender immunologischer Abwehrzellen im Blut. In einer weiteren Versuchsserie wurden BALB/c-Mäuse subletal bestrahlt, und anschließend ebenfalls mit oder ohne DA-SP5 behandelt. Auch bei diesen Tieren wurde untersucht, ob sie zeitlich eher befähigt waren, "Knochenmarkzell-Kolonien" entsprechend der Norm zu bilden. Das erfindungsgemäß verwendete Mittel wurde in Mengen von 0,05mg bis 1,0 mg pro kg Körpergewicht verabreicht. […]

Knochenmarkstammzellen [2] = experiment: Agar colony test (CFU test) of bone marrow stem cells after methotrexate treatment, followed by DA-SP5; details: after Methotrexat 175 mg/kg days +1 to +5, DA-SP5 10 µg i.p. three times weekly, normal value 121 ± 23
From the text: as §1

Knochenmarkstammzellen [3] = experiment: Agar colony test (CFU test) of bone marrow stem cells after sublethal X-ray irradiation, followed by DA-SP5; details: after single X-ray irradiation, DA-SP5 10 µg i.p. three times weekly, normal value 121 ± 23
From the text: as §1

## Ac-RK(Ac)EVY [DA-SP5, (N^α-acetyl-L-arginyl)-(N^ε-acetyl-L-lysyl)-L-glutamyl-L-valyl-L-tyrosin]
Knochenmarkstammzellen [1]; Tag Nr. 10 of DA-SP5 therapy
  Kolonien pro Femur (x̄ ± s): 10 ± 8
Knochenmarkstammzellen [1]; Tag Nr. 20 of DA-SP5 therapy
  Kolonien pro Femur (x̄ ± s): 55 ± 21
Knochenmarkstammzellen [1]; Tag Nr. 40 of DA-SP5 therapy
  Kolonien pro Femur (x̄ ± s): 126 ± 18
Knochenmarkstammzellen [2]; Tag Nr. 10 of DA-SP5 therapy
  Kolonien pro Femur (x̄ ± s): 9 ± 6
Knochenmarkstammzellen [2]; Tag Nr. 20 of DA-SP5 therapy
  Kolonien pro Femur (x̄ ± s): 53 ± 24
Knochenmarkstammzellen [2]; Tag Nr. 40 of DA-SP5 therapy
  Kolonien pro Femur (x̄ ± s): 110 ± 20
Knochenmarkstammzellen [3]; Tag Nr.10 of DA-SP5 therapy
  Kolonien pro Femur (x̄ ± s): 8 ± 6
Knochenmarkstammzellen [3]; Tag Nr.20 of DA-SP5 therapy
  Kolonien pro Femur (x̄ ± s): 116 ± 10
Knochenmarkstammzellen [3]; Tag Nr.40 of DA-SP5 therapy
  Kolonien pro Femur (x̄ ± s): 126 ± 12
